Several values for one entry are separate records, joined by “and”; a condition that tells them apart may be missing. Equal values may be shown once. Toxic doses and inconclusive results are not listed. Rule as the data show it: active = T/C of 150% or more; inactive = T/C below 125%.
Tested on: L1210 leukemia ip in BDF1 mice, survival T/C
Experiment: NCI In Vivo Anticancer Drug Screen. Data for tumor model L1210 Leukemia (intraperitoneal) in B6D2F1 (BDF1) mice
Conditions: endpoint: mean survival time, higher = longer survival
Method in brief: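 Tumor was transplanted into mice, which were then dosed with test compound or vehicle alone. Survival was recorded for each group, and the treated figure was expressed relative to the control figure.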

[1] = dose: 75.0 mg/kg/injection, schedule: Q01DX001 (ip), vehicle: saline
[2] = dose: 150.0 mg/kg/injection, schedule: Q01DX001 (ip), vehicle: saline
[3] = dose: 300.0 mg/kg/injection, schedule: Q01DX001 (ip), vehicle: saline
[4] = dose: 25.0 mg/kg/injection, schedule: Q04DX003 (ip), vehicle: Klucel (hydroxypropylcellulose) (HPC)
[5] = dose: 50.0 mg/kg/injection, schedule: Q01DX009 (ip), vehicle: Klucel (hydroxypropylcellulose) (HPC)
[6] = dose: 50.0 mg/kg/injection, schedule: Q04DX003 (ip), vehicle: Klucel (hydroxypropylcellulose) (HPC)
[7] = dose: 100.0 mg/kg/injection, schedule: Q01DX009 (ip), vehicle: Klucel (hydroxypropylcellulose) (HPC)
[8] = dose: 100.0 mg/kg/injection, schedule: Q04DX003 (ip), vehicle: Klucel (hydroxypropylcellulose) (HPC)
[9] = dose: 200.0 mg/kg/injection, schedule: Q01DX009 (ip), vehicle: Klucel (hydroxypropylcellulose) (HPC)
[10] = dose: 100.0 mg/kg/injection, schedule: Q01DX001 (ip), vehicle: carboxymethylcellulose (CMC)
[11] = dose: 200.0 mg/kg/injection, schedule: Q01DX001 (ip), vehicle: carboxymethylcellulose (CMC)
[12] = dose: 400.0 mg/kg/injection, schedule: Q01DX001 (ip), vehicle: carboxymethylcellulose (CMC)
[13] = dose: 400.0 mg/kg/injection, schedule: Q01DX009 (ip), vehicle: Klucel (hydroxypropylcellulose) (HPC)
[14] = dose: 200.0 mg/kg/injection, schedule: Q04DX003 (ip), vehicle: Klucel (hydroxypropylcellulose) (HPC)
[15] = dose: 400.0 mg/kg/injection, schedule: Q04DX003 (ip), vehicle: Klucel (hydroxypropylcellulose) (HPC)
[16] = dose: 100.0 mg/kg/injection, schedule: Q01DX001 (ip), vehicle: saline
[17] = dose: 200.0 mg/kg/injection, schedule: Q01DX001 (ip), vehicle: saline
[18] = dose: 50.0 mg/kg/injection, schedule: Q01DX009 (ip), vehicle: saline with Tween-80
[19] = dose: 100.0 mg/kg/injection, schedule: Q04DX003 (ip), vehicle: saline with Tween-80
[20] = dose: 400.0 mg/kg/injection, schedule: Q01DX001 (ip), vehicle: saline

Measured: T/C

CN(C)CCCNc1nc(-c2cccc(C(Cl)(Cl)Cl)c2)nc(C(Cl)(Cl)Cl)n1
inactive: [1] 95 % of control | [2] 101 % of control | [3] 91 % of control

CC(C)C1=CC23CCC4C(C)(C(=O)O)CCCC4(C)C2CC1C1C(=O)OC(=O)C13 (configuration not stated)
inactive: dose: 25.0 mg/kg/injection, schedule: Q01DX009 (ip), vehicle: Klucel (hydroxypropylcellulose) (HPC) 106 % of control | [4] 103 % of control | [5] 102 % of control | [6] 101 % of control | [7] 102 % of control | [8] 95 % of control | [9] 91 % of control

Cc1ccc(-c2cc(=S)ss2)cc1
inactive: [10] 100 % of control | [11] 92 % of control | [12] 94 % of control

CC(=O)Nc1ccc(Oc2ccc(NC(C)=O)cc2)cc1
inactive: dose: 25.0 mg/kg/injection, schedule: Q04DX002 (ip), vehicle: saline 90 % of control | dose: 50.0 mg/kg/injection, schedule: Q04DX002 (ip), vehicle: saline 97 % of control | dose: 100.0 mg/kg/injection, schedule: Q04DX002 (ip), vehicle: saline 117 % of control

CC(C)=NOS(=O)(=O)c1c(C)cc(C)cc1C
inactive: dose: 50.0 mg/kg/injection, schedule: Q04DX002 (ip), vehicle: Klucel (hydroxypropylcellulose) (HPC) 98 % of control | [7] 87 % of control | dose: 100.0 mg/kg/injection, schedule: Q04DX002 (ip), vehicle: Klucel (hydroxypropylcellulose) (HPC) 98 % of control and 89 % of control | [9] 97 % of control | dose: 200.0 mg/kg/injection, schedule: Q04DX002 (ip), vehicle: Klucel (hydroxypropylcellulose) (HPC) 105 % of control | [13] 97 % of control | dose: 400.0 mg/kg/injection, schedule: Q04DX002 (ip), vehicle: Klucel (hydroxypropylcellulose) (HPC) 92 % of control

CCCCC(CCC)(CCN)CCCC
inactive: dose: 1.0 mg/kg/injection, schedule: Q01DX009 (ip), vehicle: Klucel (hydroxypropylcellulose) (HPC) 100 % of control | dose: 2.0 mg/kg/injection, schedule: Q01DX009 (ip), vehicle: Klucel (hydroxypropylcellulose) (HPC) 100 % of control | dose: 2.0 mg/kg/injection, schedule: Q04DX003 (ip), vehicle: Klucel (hydroxypropylcellulose) (HPC) 98 % of control | dose: 4.0 mg/kg/injection, schedule: Q01DX009 (ip), vehicle: Klucel (hydroxypropylcellulose) (HPC) 101 % of control | dose: 4.0 mg/kg/injection, schedule: Q04DX003 (ip), vehicle: Klucel (hydroxypropylcellulose) (HPC) 98 % of control | dose: 8.0 mg/kg/injection, schedule: Q01DX009 (ip), vehicle: Klucel (hydroxypropylcellulose) (HPC) 100 % of control | dose: 8.0 mg/kg/injection, schedule: Q04DX003 (ip), vehicle: Klucel (hydroxypropylcellulose) (HPC) 93 % of control | dose: 16.0 mg/kg/injection, schedule: Q04DX003 (ip), vehicle: Klucel (hydroxypropylcellulose) (HPC) 96 % of control | dose: 25.0 mg/kg/injection, schedule: Q01DX001 (ip), vehicle: carboxymethylcellulose (CMC) 95 % of control | [10] 93 % of control

CC(=O)C1CCCC23CC(CC12)C(C)(C)C3OC=O (configuration not stated)
inactive: [7] 96 % of control | [8] 90 % of control | [9] 100 % of control | [14] 92 % of control | [13] 107 % of control | [15] 95 % of control

CCCC1OC(=O)C(C)O1 (configuration not stated)
inactive: [7] 94 % of control | [8] 105 % of control | [9] 97 % of control | [14] 100 % of control | [15] 103 % of control

COc1ccc(CC(C(=O)O)C(Cc2ccc(OC)c(OC)c2)C(=O)O)cc1OC (configuration not stated)
inactive: [5] 94 % of control | [7] 104 % of control | dose: 100.0 mg/kg/injection, schedule: Q04DX003 (ip), vehicle: saline 118 % of control | [9] 95 % of control | dose: 200.0 mg/kg/injection, schedule: Q04DX003 (ip), vehicle: saline 114 % of control | [13] 91 % of control | dose: 400.0 mg/kg/injection, schedule: Q04DX003 (ip), vehicle: saline 98 % of control

O=C1CC(C(=O)O)C(C(=O)O)C1 (configuration not stated)
inactive: [16] 91 % of control | [17] 91 % of control

COc1cc(/C=N\NC(=O)OC(C)(C)C)cc(OC)c1OC
inactive: [18] 95 % of control | dose: 100.0 mg/kg/injection, schedule: Q01DX009 (ip), vehicle: saline with Tween-80 97 % of control | [19] 87 % of control | dose: 200.0 mg/kg/injection, schedule: Q01DX009 (ip), vehicle: saline with Tween-80 97 % of control | dose: 200.0 mg/kg/injection, schedule: Q04DX003 (ip), vehicle: saline with Tween-80 91 % of control

CN(C(=O)c1ccccc1C(=O)N(C)c1ccccc1)c1ccccc1
inactive: [16] 109 % of control | [17] 109 % of control | [20] 97 % of control

CCCCCc1c(CCCC)c(=O)[nH]c2ccccc12
inactive: [16] 97 % of control | [17] 98 % of control | [20] 90 % of control

CCCCCCCCCCCCNC
inactive: dose: 12.5 mg/kg/injection, schedule: Q01DX009 (ip), vehicle: saline with Tween-80 92 % of control | dose: 25.0 mg/kg/injection, schedule: Q01DX009 (ip), vehicle: saline with Tween-80 93 % of control | dose: 25.0 mg/kg/injection, schedule: Q04DX003 (ip), vehicle: saline with Tween-80 103 % of control | [18] 91 % of control | dose: 50.0 mg/kg/injection, schedule: Q04DX003 (ip), vehicle: saline with Tween-80 93 % of control | [19] 93 % of control

Nc1ncnc(N)c1NC(=O)C1CCCCC1
inactive: dose: 25.0 mg/kg/injection, schedule: Q01DX001 (ip), vehicle: Klucel (hydroxypropylcellulose) (HPC) 101 % of control | dose: 50.0 mg/kg/injection, schedule: Q01DX001 (ip), vehicle: Klucel (hydroxypropylcellulose) (HPC) 101 % of control

CCCC(C)C1(CCC)C(=O)NC(=S)NC1=O (configuration not stated)
inactive: [1] 94 % of control | [2] 98 % of control | [3] 92 % of control

CCc1c(O)nc2ccccn2c1=O
inactive: [10] 98 % of control | [11] 109 % of control | [12] 113 % of control

O=[N+]([O-])c1cc(Cl)cc(Br)c1O
inactive: dose: 12.5 mg/kg/injection, schedule: Q04DX003 (ip), vehicle: Klucel (hydroxypropylcellulose) (HPC) 100 % of control | [4] 102 % of control | [6] 105 % of control | [8] 103 % of control
